# Experimental data taken from US20130252988A1, “COMPOSITIONS AND METHODS FOR TREATING MYELOFIBROSIS” (TARGEGEN, INC., priority 2010, published 2013).
# Entries after “also recorded” stand apart in the source; their conditions may differ. Structures can show the parent of a compound that is named as a salt.
# Legend:
# [1] = Body weight during study treatment; type: in vivo, human
# [2] = tested on: subjects with myelofibrosis (constitutional symptoms); assay: Constitutional symptoms rated by subjects (early satiety, fatigue, night sweats, cough, pruritus); type: in vivo
# From the text: The data here reflected changes from symptoms present at baseline. […] Severity was rated by subjects on a scale of 1-10: 0=absent; 1-3=mild; 4-7=moderate; 8-10=severe. Improved=downgrade to absent or to mild or moderate from more severe rating at baseline.
# Symptoms were categorized as “absent” (score=0), “mild” (score=1-3). “moderate” (score=4-7), or “severe” (score=8-10).
# bone marrow = assay: Bone marrow histology (cellularity, fibrosis); type: in vivo, human
# Description: (§1) Responses were measured every 4 weeks per International Working Group for MPN Research and Treatment (IWG-MRT) criteria (Tefferi A et al., Blood 108:1497-1503, 2006). Assessment of bone marrow histology was performed at baseline and every 24 weeks of therapy. Changes in JAK2V617F allele burden in the granulocyte fraction of peripheral blood were measured as previously described (Kittur J et al., Cancer 109:2279-2284, 2007); the assessments were at baseline and every 4 weeks during the first 6 cycles, and every 6th cycle of therapy in the extension study.
# WBC count = assay: Leukocytosis: WBC count; type: in vivo, human; settings: for Subjects who achieved a normal WBC count: following 6 cycles; for Subjects with normal WBC counts: following 12 cycles
# JAK2V617F allele burden = JAK2V617F allele burden in the granulocyte fraction of peripheral blood; type: in vivo, human
# Description: as §1
# [3] = tested on: subjects with myelofibrosis (palpable splenomegaly); assay: Palpable spleen size / splenomegaly response (IWG-MRT criteria); type: in vivo, human; design: Clinical improvement (IWG response), subjects by 20 weeks: reference not given here; settings: for Subjects with =50% decrease in palpable spleen size persistent for at least 8 weeks (Clinical Improvement, CI) / Subjects with a minimum 25% decrease in palpable spleen size: by cycle 6; for Subjects with a minimum 25% decrease in palpable spleen size: intent-to-treat; for Subjects with spleen response (CI): by cycle 12
# Description: as §1
# platelet count = assay: Thrombocytosis: platelet count; type: in vivo, human; settings: for Subjects who achieved a normal platelet count: after 6 cycles; for Subjects with a normal platelet count: following 12 cycles
# [4] = MTD cohort, after 1 cycle (n=12)
# [5] = MTD cohort, after 1 cycle, 8 subjects at baseline
# [6] = MTD cohort, after 6 cycles (n=16)
# [7] = 680 mg/day starting dose (N=37)
# [8] = MTD cohort, subjects who completed 6 cycles
structure (smiles),measurement,setting,value
"Cc1cnc(Nc2ccc(OCCN3CCCC3)cc2)nc1Nc1cccc(S(=O)(=O)NC(C)(C)C)c1 [TG101348, N-tert-butyl-3-[(5-methyl-2-{[4-(2-pyrrolidin-1-ylethoxy)phenyl]amino}pyrimidin-4-yl)amino]benzenesulfonamide dihydrochloride monohydrate]","Weight, change from baseline, median","[1]; 6 Cycles, MTD Cohort (n = 28)",0.6 kg
same,"Weight, median","[1]; 6 Cycles, MTD Cohort (n = 28)",77.7 kg
same,"Weight, change from baseline, median","[1]; 6 Cycles, Overall (n = 43)",0.4 kg
same,"Weight, median","[1]; 6 Cycles, Overall (n = 43)",76.9 kg
same,"Weight, change from baseline, median","[1]; 12 Cycles, MTD Cohort (n = 26)",0.35 kg
same,"Weight, median","[1]; 12 Cycles, MTD Cohort (n = 26)",76.5 kg
same,"Weight, change from baseline, median","[1]; 12 Cycles, Overall (n = 36)",0.7 kg
same,"Weight, median","[1]; 12 Cycles, Overall (n = 36)",76.1 kg
same,Median body weight relative to baseline,"[1]; end of 6 and 12 cycles, overall and MTD cohorts",stable relative to baseline
same,Subjects who reported new onset of =1 symptom during the study,[2]; FIG. 4,18 subjects
same,Night sweats: subjects with complete resolution,"[2]; MTD cohort, after 1 cycle",64%
same,Cough: subjects reporting improvement,[2]; [4],75%
same,Cough: subjects with complete resolution,[2]; [4],67%
same,Pruritus: subjects with complete resolution,[2]; [5],50%
same,Pruritus: subjects with improvement,[2]; [5],75%
same,Early satiety: subjects with complete resolution,"[2]; MTD cohort, after 2 cycles (n=27)",56%
same,Night sweats: subjects with complete resolution,"[2]; MTD cohort, after 6 cycles (n=9)",89%
same,Fatigue: subjects reporting improvement,[2]; [6],63%
same,Fatigue: subjects with complete resolution,[2]; [6],25%
same,Effect on MF-associated constitutional symptoms,"[2]; early satiety, fatigue, cough, pruritus, night sweats, baseline versus last visit, dihydrochloride monohydrate","clinically significant benefit or resolution of constitutional symptoms; also recorded: able to improve the MF-associated constitutional symptoms; also recorded: remarkable activity against MF-associated constitutional symptoms, pruritus and cachexia"
same,Subjects with new-onset symptoms resolved by last follow-up visit,"[2]; of the 18 with new onset, FIG. 4",12 subjects
same,Pruritus in one subject,"[2]; subject with JAK2V617F-positive PMF, started at 680 mg/day",complete resolution of pruritus
same,Bone marrow fibrosis grade,"bone marrow; after 18 cycles, person, V617F negative PMF, 3+ at baseline, starting dose 240, follow-up 440 mg/day",0
same,Bone marrow cellularity,"bone marrow; after 18 cycles, person, V617F negative PMF, 60% at baseline, starting dose 30, follow-up 520 mg/day",5-10%
same,BM cellularity and reticulin fibrosis with extended treatment,bone marrow; preliminary observations,reduction in BM cellularity and reticulinfibrosis
same,Patients with a normal WBC count at last follow-up visit,"WBC count; Example 1, leukocytosis at baseline, started at =680 mg",70%
same,Subjects with normal WBC counts at follow-up visit,"WBC count; Example 2, baseline WBC count >11×10^9/L",73%
same,Anti-myeloproliferation activity: resolution of leukocytosis and thrombocytosis,WBC count; Example 2 conclusions,virtually all treated subjects experiencing complete resolution of leukocytosis and thrombocytosis
same,Subjects who achieved a normal WBC count,WBC count; MTD cohort (13 of 18),72%
same,Subjects who achieved a normal WBC count,WBC count; across doses (16 of 28 with baseline leukocytosis),57%
same,Subjects with normal WBC counts,WBC count; MTD cohort (10 of 17),59%
same,Subjects with normal WBC counts,WBC count; across doses (14 of 25),56%
same,Subjects exhibiting no change in allele burden,"JAK2V617F allele burden; 12 cycles, 100% allele burden at baseline",2
same,Median JAK2V617F allele burden,"JAK2V617F allele burden; 23 subjects with baseline >20% (baseline median 60%), after 6 cycles, range 4%-100%",31%
same,Median JAK2V617F allele burden,"JAK2V617F allele burden; 23 subjects with baseline >20% (baseline median 60%), after 12 cycles, range 7%-100%",32%
same,Patients with =50% reduction in VF allele burden,"JAK2V617F allele burden; 48 evaluable VF-positive patients (21 patients), last available follow-up",44%
same,Median decrease in granulocyte mutant allele burden,"JAK2V617F allele burden; 48 evaluable VF-positive patients, last available follow-up",48%
same,Median JAK2V617F allele burden,"JAK2V617F allele burden; all mutation-positive subjects (baseline median 20%), after 6 cycles, range 0%-100%",17%
same,Median JAK2V617F allele burden,"JAK2V617F allele burden; all mutation-positive subjects (baseline median 20%), after 12 cycles, range 0%-100%",19%
same,Change in JAK2V617F allele burden versus pre-study baseline,"JAK2V617F allele burden; all mutation-positive subjects (n=51), after 6 cycles (p=0.04) and 12 cycles (p=0.01)",significant decrease
same,Subjects with =50% decrease in JAK2V617F,"JAK2V617F allele burden; baseline >20%, 12 cycles, 7 subjects",39%
same,Subjects exhibiting an increase in allele burden,"JAK2V617F allele burden; baseline >20%, 12 cycles, Three subjects (7%, 18%, and 22%)",17%
same,Median decrease in JAK2V617F allele burden,"JAK2V617F allele burden; baseline >20%, 18 subjects who completed 12 cycles, range 29% to 82%",50%
same,Subjects exhibiting an increase in JAK2V617F allele burden,"JAK2V617F allele burden; baseline >20%, after 6 cycles, 4 subjects (18%, 21%, 30%, and 58%)",20%
same,Subjects with =50% decrease in JAK2V617F allele burden,"JAK2V617F allele burden; baseline >20%, after 6 cycles, 9 subjects",45%
same,Subjects exhibiting a decrease in JAK2V617F allele burden,"JAK2V617F allele burden; baseline >20%, after 6 cycles, 16 of 20 subjects",80%
same,Median decrease in JAK2V617F allele burden,"JAK2V617F allele burden; baseline >20%, after 6 cycles, 16 subjects, range 6% to 96%",61%
same,Patients with =50% reduction in VF allele burden,JAK2V617F allele burden; group who started treatment at =680 mg,48%
same,Change in JAK2V617F allele burden versus pre-study baseline,"JAK2V617F allele burden; subgroup with baseline allele burden >20% (n=23), after 6 cycles (p=0.002) and 12 cycles (p=0.002), dihydrochloride monohydrate",significant and even more pronounced decrease; also recorded: significant decrease
same,Subjects with decreased JAK2 V617F allele burden,"JAK2V617F allele burden; subjects with baseline >20% (N=22), FIG. 6",59%
same,"Clinical improvement (IWG response), subjects by 12 weeks",[3]; [7],56%
same,"Clinical improvement (IWG response), subjects by 20 weeks",[3]; [7],100%
same,Subjects who achieved clinical improvement based on reduction of palpable splenomegaly (IWG response),[3]; [7],49%
same,Complete response of splenomegaly,[3]; Example 2 conclusions,~30%
same,Proportion achieving =50% reduction in palpable splenomegaly,[3]; Example 2 conclusions,two-thirds
same,Mean (standard deviation) duration of spleen response per IWG-MRT criteria,[3]; MTD cohort,288 (±76) days
same,Median time to CI,"[3]; MTD cohort, range 41-170",113 days
same,Subjects in whom the spleen became non palpable,[3]; [8],31%
same,Subjects with =25% reduction in palpable spleen size,[3]; [8],90%
same,Subjects with =50% reduction in palpable spleen size,[3]; [8],66%
same,Subjects with JAK2V617F-negative MF who achieved CI,[3]; Three of 4 subjects who completed 6 cycles,75%
same,Median time to CI,"[3]; across doses, range 41 to 171",141 days
same,Patients with reduction in palpable spleen size of at least 50%,"[3]; at 3 months, 33 patients who started at =680 mg and completed at least 3 cycles, 22 patients",67%
same,Patients in whom the spleen became non-palpable,"[3]; at 3 months, 33 patients who started at =680 mg, 9 patients",27%
same,Relapse or disease progression,[3]; at the time of data collection (Example 2),no relapse or disease progression
same,"Subjects with =50% decrease in palpable spleen size persistent for at least 8 weeks (Clinical Improvement, CI)",[3]; MTD cohort,45%
same,Subjects with a minimum 25% decrease in palpable spleen size,[3]; MTD cohort,65%
same,"Subjects with =50% decrease in palpable spleen size persistent for at least 8 weeks (Clinical Improvement, CI)",[3]; overall,39%
same,Subjects with a minimum 25% decrease in palpable spleen size,[3]; overall (36 subjects),61%
same,Subjects with spleen response (CI),[3]; MTD cohort,50%
same,Subjects with spleen response (CI),[3]; overall,48%
same,Lowest starting dose at which CI was observed,[3]; in vivo,240 mg/day
same,Palpable spleen size after treatment,"[3]; one subject with JAK2V617F-positive PMF, started at 680 mg/day, 9 cm before",0 cm
same,Mean (standard deviation) duration of spleen response per IWG-MRT criteria,[3]; overall,315 (±129) days
same,Onset of spleen response,"[3]; rapid, generally seen within",≤ 2 cycles
same,Subjects who achieved a normal platelet count,platelet count; MTD cohort (7 with baseline thrombocytosis),100%
same,Subjects who achieved a normal platelet count,platelet count; across doses (10 with baseline thrombocytosis),90%
same,Effect on platelet counts in thrombocytosis,platelet count; baseline platelet count >450×10^9/L,able to reduce platelet counts
same,Subjects with a normal platelet count,"platelet count; MTD cohort, all of 6",6 subjects
same,Subjects with a normal platelet count,platelet count; across doses (7 of 8),88%
